This note sets out measurements from PubChem BioAssay (NCI).

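Cultured in 96-well plates, cells were exposed to test compound for 48 hours across five concentrations. TGI: total growth inhibition.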 Bounds are passed on as bounds.

Holding throughout (test): NCI tumour cell line growth inhibition, 48 h
Test [1] relates to SF-268 CNS.
The test system of test [2] is HS 578T breast.
The subject of test [3] is SK-MEL-5 melanoma.
The subject of test [4] is MCF7 breast.
The test system of test [5] is HCT-116 colon.
In test [6] the test system is SF-295 CNS.
Test [7] deals with SK-OV-3 ovarian.
For test [8], the system named is BT-549 breast.
Test [9] deals with SK-MEL-2 melanoma.
The subject of test [10] is CAKI-1 renal.
In test [11] the test system is ACHN renal.
For test [12], the system named is A549 NSCLC.
Test [13] relates to HT29 colon.
Test [14] concerns KM12 colon.
Test [15] has as its system U251 CNS.
Test [16] has as its system NCI/ADR-RES ovarian.
In test [17] the test system is SW-620 colon.
Test [18] has as its system COLO 205 colon.
The test system of test [19] is RPMI-8226 leukemia.
The subject of test [20] is DU-145 prostate.

In the case of `O=[N+]([O-])c1ccc(N/N=C2/CC3=C2CCCCCCCCCC3)c([N+](=O)[O-])c1`, the TGI in test [1], in [2], in test [3], in [4], in test [5] and in test [6] was more than 100 µM each time. The TGI in [7], in [8], in test [9], in [10], in test [11] and in test [12] was more than 100 µM each time. For the same compound, the TGI in test [13], in test [14], in [15], in [16], in test [17] and in test [18] was more than 100 µM throughout. The TGI in [19] and in test [20] was more than 100 µM in each case.
For `CC(=O)OCC1OC(N2C(c3ccccc3)=CC(c3ccco3)C(C#N)=C2S)C(OC(C)=O)C(OC(C)=O)C1OC(C)=O` (stereo not given), the TGI was more than 57.4 µM in [1]; 7.61 µM in test [2]; 17.9 µM in test [3]; more than 82.4 µM in [4]; 33.2 µM in [5]; more than 70.3 µM in test [6]. The TGI in [7] is 59 µM; in [8], more than 100 µM; in test [9], 65.4 µM; in [10] it was 34.1 µM; in test [11] it was 24.8 µM; in [12] it was more than 65.6 µM. Besides, the TGI is more than 100 µM in test [13]; more than 100 µM in test [14]; 8.6 µM in test [15]; 39.9 µM in test [16]; 4.2 µM in test [17]; 28.5 µM in [18]. Also, the TGI in test [19] was more than 45 µM; in [20], more than 88.2 µM.
As to `CCC1(CC)C(=O)N(C(=O)c2ccccc2)N(C(=O)c2ccc(Cl)cc2)C1=O`, the TGI in test [1], in test [2], in test [3], in test [4], in [5] and in test [6] was more than 75 µM in each case. The TGI in test [7], in test [8], in test [9], in test [10], in test [11] and in [12] was more than 75 µM throughout. In addition, the TGI in test [13], in test [14], in test [15], in test [16], in [17] and in test [18] was more than 75 µM throughout. In addition, the TGI in test [19] and in test [20] was more than 75 µM each time.
Take `O=[N+]([O-])c1cccc(-c2ncc3c(n2)-c2ccccc2C3)c1`: the TGI in test [1], in [2], in [3], in test [4], in test [5] and in test [6] was more than 100 µM throughout. In addition, the TGI in [7], in [8], in test [9], in test [10], in test [11] and in test [12] was more than 100 µM in each case. In addition, the TGI in test [13], in test [14], in [15], in [16], in test [17] and in test [18] was more than 100 µM each time. Moreover, the TGI in test [19] and in test [20] was more than 100 µM each time.
Regarding `C/C=C/C=C\C=C/C(O)C(C)C(CCC(C)C1OC(=O)C=CC1C)OP(=O)(O)O` (stereo not given), the TGI in test [1] was 2.03 µM; in test [2], 4.28 µM; in [3], 1.84 µM; in [4], 0.559 µM; in [5], 0.717 µM; in test [6], 1.01 µM. The TGI in test [7] is 1.68 µM; in test [8] it was 0.591 µM; in [9] it was 2.32 µM; in [10], 0.314 µM; in [11], 1.26 µM; in test [12] it was 3.83 µM. In addition, the TGI in [13] was determined as 1.08 µM; in [14] it was 1.16 µM; in test [15] it was 2.5 µM; in [16], 2.88 µM; in test [17] it was 1.67 µM; in test [18] it was 0.788 µM. The TGI was determined as 0.491 µM in test [19] and 1.76 µM in test [20].
As for `O=C1OC(C2Cc3ccc4c(c3C2=O)CCC4)c2ccccc21` (stereo not given), the TGI in [1], in [2], in [3], in [4], in test [5] and in test [6] was more than 100 µM each time. In addition, the TGI in [7], in test [8], in [9], in test [10], in [11] and in test [12] was more than 100 µM each time. For the same compound, the TGI in test [13] is more than 100 µM; in [14], more than 100 µM; in test [15] it was more than 100 µM; in test [16] it was more than 100 µM; in test [17], more than 100 µM; in test [18], 45.8 µM. The TGI was 85.1 µM in test [19] and more than 100 µM in test [20].
With `N/N=C(\c1nc2ccc([N+](=O)[O-])cc2[nH]c1=O)C(O)c1ccc(Cl)c(Cl)c1` (stereo not given), the TGI in test [1], in test [2], in test [3], in test [4], in test [5] and in test [6] was more than 100 µM throughout. The TGI in test [7], in [8], in test [9], in test [10], in test [11] and in test [12] was more than 100 µM each time. Moreover, the TGI in test [13], in test [14], in test [15], in test [16], in [17] and in [18] was more than 100 µM each time. Besides, the TGI in test [19] and in [20] was more than 100 µM in each case.
